Legend:
[1] = biological target: D4.4 type dopamine receptor (Homo sapiens (Human), UniProt P21917); test: Competitive binding to D4.4 receptor ([3H]-YM-09151-2); details: human recombinant receptor in CHO cells, [3H]-YM-09151-2 0.3 nM
Protocol: (§1) R-55 (which comprises a 3-hydroxyphenyl moiety) and its isomers L-221 (comprising a 4-hydroxyphenyl moiety) and L-238 (comprising a 2-hydroxyphenyl moiety) were assayed for competitive binding to D2 SHORT and D4.4 type dopamine receptors, in order to assess their efficacy for treating sexual disorders. Both receptor types are expressed as human recombinant proteins in CHO cells, as described, for example, in Jarvis et al. (1973); Van Tol et al. (1991) and Van Tol et al. (1992).
Determination of binding to D4.4 receptor was performed using [^3H]-YM-09151-2 (70-87 Ci/mmol, 0.3 nM), as a radioligand, in the presence of various concentrations of the tested compound. Reactions were carried out in 50 mM TRIS-HCl (pH 7.4) containing 5 mM MgCl2, 5 mM EDTA, 5 mM KCl and 1.5 mM CaCl2, for 60 minutes at 22° C. The reaction was terminated by rapid vacuum filtration onto glass fiber filters. Radioactivity trapped onto the filters was determined (counted) and compared to control values in order to accurately evaluate any interaction of the tested compound(s) with the cloned dopamine D4.4 binding site.

[2] = Solubility of R-55 in solvents for transdermal formulation; format: physicochemical
Protocol: To this effect, a stable oil-in-water emulsion was developed. Various solvents were tested in order to achieve an R-55 concentration of up to 20 mg/gram in the lipid phase of the emulsion, in order to achieve a total concentration of up to 10 mg/gram R-55.
The following organic solvents which are used in transdermal formulations were tested: […]

D2 short receptor = D2 short receptor (Homo sapiens (Human), UniProt P14416); test: Competitive binding to D2 short receptor ([3H]-spiperone), D4/D2 selectivity; details: ratio of concentrations required to inhibit 50% of radioligand binding for each receptor
Protocol: as §1
Determination of binding to D2 short receptor was performed using [^3H]-spiperone, a D2 receptor ligand (Gundlach et al., 1984), as a radioligand (20-60 Ci/mmol, 0.2 nM) in the presence of various concentrations of the tested compound. Reactions were carried out in 50 mM TRIS-HCl (pH 7.4) containing 120 mM NaCl, 5 mM KCl, 5 mM MgCl2 and 1 mM EDTA, for 60 minutes at 25° C. The reaction was terminated by rapid vacuum filtration onto glass fiber filters. Radioactivity trapped onto the filters was determined (counted) and compared to control values in order to accurately evaluate any interaction of the test compound(s) with the cloned dopamine D2 short binding site.
Selectivity of R-55 was calculated as the D4/D2 binding ratio, based on the ratio of the concentration required to inhibit 50% of the radioligand binding for each receptor.

Dopamine D4.4 receptor = Dopamine D4.4 receptor (Homo sapiens (Human), UniProt P21917); test: Competitive binding, spiperone radioligand
Protocol: (§2) R-55 (which comprises a 3-hydroxyphenyl moiety) and the structurally related compounds N-108 (2-{[4-(2-ethoxyphenyl)piperazin-1-yl]methyl}quinazolin-4(3H)-one) and B-39 (7-chloro-2-((5,6-dihydro-4-(2-methoxyphenyl)pyridin-1(2H)-yl)methyl)quinazolin-4(3H)-one) were assayed for competitive binding to a variety of receptors, including D4.4 type dopamine receptor, in order to assess their specificity for D4.4 dopamine receptors.
(§3) The receptors were expressed as human recombinant proteins in CHO cells, except for adrenergic α1 and α2 receptors which were expressed in Wistar rat brain and cerebral cortex cells, respectively, and melanocortin MC4 receptor which was expressed in human recombinant HEK-293 cells. Binding was determined using the following radioligands in the presence of various concentrations of the tested compound:
(§4) 0.16 nM, 0.7 nM and 1.2 nM spiperone, respectively, for dopamine D2S, D3 and D4.4 receptors,
(§5) The binding assays were performed in accordance with procedures described in the literature (Greengrass & Bremner, 1979; Boyajian & Leslie, 1987; Broadhurst, 1988; Lewis, 2001; Sutton, 1995; Dearry, 1990; Zhou, 1990; Grandy, 1989; Hayes, 1992; Sokoloff, 1990; Van Tol, 1991; Van Tol 1992; Sunahara, 1991; Weinshank, 1991; Schioth, 1996; Schioth 1997; Martin & Humphrey, 1994; May, 2003; Wolf & Schutz, 1997).

Dopamine D3 receptor = Dopamine D3 receptor (Homo sapiens (Human), UniProt P35462); test: Competitive binding, spiperone radioligand
Protocol: as §2, §3, §4, §5

Dopamine D2S receptor = Dopamine D2S receptor (Homo sapiens (Human), UniProt P14416); test: Competitive binding, spiperone radioligand
Protocol: as §2, §3, §4, §5

[3] = biological target: Serotonin 5-HT2C receptor (Homo sapiens (Human), UniProt P28335); test: Competitive binding, mesulergine radioligand
Protocol: as §2, §3
1 nM mesulergine for serotonin 5-HT2C receptor.
as §5

Adrenergic α2 receptor = test: Competitive binding, rauwolscine radioligand; set-up: species or system Wistar rat
Protocol: as §2, §3
0.7 nM rauwolscine for adrenergic α2 receptor,
as §5

Adrenergic α1 receptor = test: Competitive binding, prazosin radioligand; set-up: species or system Wistar rat
Protocol: as §2, §3
0.25 nM prazosin for adrenergic α1 receptor,
as §5

Sequence of Dopamine D4.4 receptor (P21917 whole entry): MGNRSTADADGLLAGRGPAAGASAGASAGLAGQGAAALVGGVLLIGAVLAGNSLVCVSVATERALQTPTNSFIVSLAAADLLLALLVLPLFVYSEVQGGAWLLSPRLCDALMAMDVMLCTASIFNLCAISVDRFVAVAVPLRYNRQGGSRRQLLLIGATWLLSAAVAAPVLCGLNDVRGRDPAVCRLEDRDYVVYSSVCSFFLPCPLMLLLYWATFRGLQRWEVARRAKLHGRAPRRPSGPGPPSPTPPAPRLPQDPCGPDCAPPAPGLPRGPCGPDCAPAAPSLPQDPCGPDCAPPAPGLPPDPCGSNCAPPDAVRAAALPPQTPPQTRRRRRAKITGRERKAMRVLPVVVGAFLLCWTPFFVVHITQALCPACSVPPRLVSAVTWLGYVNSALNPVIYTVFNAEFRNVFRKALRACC
Sequence of Dopamine D3 receptor (P35462 whole entry): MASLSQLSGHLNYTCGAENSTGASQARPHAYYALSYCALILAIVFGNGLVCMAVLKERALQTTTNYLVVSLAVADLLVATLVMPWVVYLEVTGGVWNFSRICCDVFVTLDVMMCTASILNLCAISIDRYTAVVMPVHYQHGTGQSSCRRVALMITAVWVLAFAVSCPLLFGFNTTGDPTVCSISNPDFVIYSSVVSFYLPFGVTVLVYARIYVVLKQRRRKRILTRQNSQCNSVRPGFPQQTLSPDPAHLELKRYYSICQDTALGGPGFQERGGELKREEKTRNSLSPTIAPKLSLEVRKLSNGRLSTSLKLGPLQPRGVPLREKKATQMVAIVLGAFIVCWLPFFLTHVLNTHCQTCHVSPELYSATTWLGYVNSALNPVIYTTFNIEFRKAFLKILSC
Sequence of D2 short receptor (P14416 other isoform, or with tags, fused parts or gaps): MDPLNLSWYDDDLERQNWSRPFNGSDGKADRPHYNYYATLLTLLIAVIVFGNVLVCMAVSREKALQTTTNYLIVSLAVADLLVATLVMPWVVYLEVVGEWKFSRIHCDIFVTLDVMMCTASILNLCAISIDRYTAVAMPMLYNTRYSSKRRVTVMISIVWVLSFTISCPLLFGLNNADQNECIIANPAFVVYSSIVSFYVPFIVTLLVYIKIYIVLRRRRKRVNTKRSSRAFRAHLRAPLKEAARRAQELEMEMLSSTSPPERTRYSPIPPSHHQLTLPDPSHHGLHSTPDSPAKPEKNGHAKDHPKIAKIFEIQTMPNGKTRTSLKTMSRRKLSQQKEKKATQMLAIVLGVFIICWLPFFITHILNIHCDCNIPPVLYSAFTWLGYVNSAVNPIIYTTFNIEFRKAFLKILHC
Sequence of Dopamine D2S receptor (P14416 other isoform, or with tags, fused parts or gaps): as above
Sequence of D4.4 type dopamine receptor (P21917 whole entry): as the sequence (P21917 whole entry) above
Sequence of Serotonin 5-HT2C receptor (P28335 33-458): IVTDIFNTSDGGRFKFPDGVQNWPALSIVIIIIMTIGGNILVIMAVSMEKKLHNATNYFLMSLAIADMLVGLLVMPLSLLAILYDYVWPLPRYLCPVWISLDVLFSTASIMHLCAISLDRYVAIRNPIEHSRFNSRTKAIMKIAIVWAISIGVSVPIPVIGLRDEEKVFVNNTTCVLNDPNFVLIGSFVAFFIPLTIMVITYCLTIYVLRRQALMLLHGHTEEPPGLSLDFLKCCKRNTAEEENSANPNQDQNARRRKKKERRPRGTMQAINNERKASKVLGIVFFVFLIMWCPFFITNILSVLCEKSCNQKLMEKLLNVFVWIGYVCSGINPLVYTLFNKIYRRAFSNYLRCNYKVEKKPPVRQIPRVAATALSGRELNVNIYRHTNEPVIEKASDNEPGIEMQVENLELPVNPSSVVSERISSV

Question: Which results are given for `O=c1[nH]c(CN2CCN(c3cccc(O)c3)CC2)nc2ccccc12` [Compound R-55, 2-((4-(3-hydroxyphenyl)piperazin-1-yl)methyl)quinazolin-4-one]?
Answer: IC50 [1]: 500 nM; solubility of R-55 in propylene glycol ([2]; propylene glycol (PG)): less than 5 mg/gram; solubility of R-55 in propylene glycol with phosphatidyl choline ([2]; weight ratio of 4:1 PG:PC): 8 mg/gram; Selectivity D4/D2 (D2 short receptor): 160; Competitive binding (%) at 5 μM of tested compound (Dopamine D4.4 receptor; Dopamine D4.4 receptor, 5 μM): 31%; binding affinity to the D4.4 receptor (in words) (Dopamine D4.4 receptor; Table 8): high binding affinity; Competitive binding (%) at 5 μM of tested compound (Dopamine D3 receptor): 5%; Competitive binding (%) at 5 μM of tested compound (Dopamine D2S receptor): 7%; Competitive binding (%) at 5 μM of tested compound [3]: 5%; Competitive binding (%) at 5 μM of tested compound (Adrenergic α2 receptor): 39%; Competitive binding (%) at 5 μM of tested compound (Adrenergic α1 receptor): 10%

From US9353067B2, “Heterocyclic compounds and uses thereof in the treatment of sexual disorders” (ATIR Holding S.A., priority 2011, dated 2016)
